Values quoted from earlier work as cited in patent publication US20260216238A1, “TETRATHIOMOLYBDIC ACID FOR USE IN TREATING COPPER METABOLISM-ASSOCIATED DISEASES OR DISORDERS (WILSON DISEASE)” (Alexion Pharmaceuticals, Inc., priority 2023, published 2026).

Tested on: patients with Wilson disease (WD)
Details: cited from earlier work; for patients with worsening of neurological symptoms on initiation of treatment: in vivo

CC(C)(S)[C@@H](N)C(=O)O [penicillamine, (2S)-2-amino-3-methyl-3-sulfanylbutanoic acid]
patients with severe side effects requiring drug withdrawal (Schilsky et al., 2022): approximately 30% | patients with worsening of neurological symptoms on initiation of treatment: approximately 25%

NCCNCCNCCN [trientine, N′-[2-(2-aminoethylamino)ethyl]ethane-1,2-diamine]
patients with worsening of neurological symptoms on initiation of treatment: approximately 25%

[Zn] [zinc]
patients with gastric irritation or gastritis (Schilsky et al., 2022): ~ ⅓ | hepatic treatment failure (long-term follow-up (Weiss et al., 2011)): 14/88
